Legend:
[1] = target: recombinant human EGFR exon 19 deletion/C797S double mutant protein (Homo sapiens (Human), UniProt P00533, C797S/DEL746-750); experiment: Biological Activity Assay C: biochemical assay against EGFR exon 19 deletion/C797S protein (EGFR d19/CS)
Method in brief: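 Compounds were tested as 16-point serial dilutions (final DMSO 2.5%) with a Phosphosens peptide sensor/ATP working solution (40 uM/4 mM). The signal was read kinetically over 90 cycles at 120 s intervals. IC50s came from 4-parameter fits of per-well slopes.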

BaF3_EGFR LR/CS cells = experiment: Biological Activity Assay D: BaF3 cell proliferation assay, EGFR L858R/C797S mutant (BaF3 LR/CS); format: cell-based; conditions: Ba/F3 EGFR; BaF3_EGFR LR/CS cells, ~72 hours, CellTiter-Glo; read-out: BaF3 LR/CS IC50
Ba/F3_EGFR WT cells = experiment: Biological Activity Assay D: BaF3 cell proliferation assay, EGFR wild-type (BaF3 WT); format: cell-based; conditions: Ba/F3 EGFR; Ba/F3_EGFR WT cells, ~72 hours, CellTiter-Glo; read-out: BaF3 WT IC50
[2] = target: recombinant human EGFR L858R/C797S double mutant protein (Homo sapiens (Human), UniProt P00533, C797S/L858R); experiment: Biological Activity Assay B: biochemical assay against EGFR L858R/C797S protein (EGFR LR/CS)
Method: In Row A of a 384-well polypropylene plate, was added 48 μL of DMSO. In wells A1 and A24, were added 12 μL of DMSO. […] To a well in Row A were added 12 μL of each 10 mM test compound stock (100% DMSO). […] The final intermediate dilution plate contained 4×16-point compound serial dilutions in assay buffer. The DMSO concentration was 10%. The intermediate compound dilution plate was transferred to the Bravo and the “5 uL dispense into ARP.pro” protocol was run. To the black low volume assay ready plates, were added 5 μL of 40 uM Phosphosens peptide sensor/4 mM ATP working solution to each well. […] To column 24, was added 10 μL of assay buffer. The final DMSO concentration was 2.5%. […] The plates were sealed with the TopSeal-A Plus plate seals. […] Set for 90 cycles with 120 second interval. […] The slope of each curve was constructed using Dotmatics in each well, and each IC50s was calculated using a 4-parameter fit model.

BaF3_EGFR d19/CS cells = experiment: Biological Activity Assay D: BaF3 cell proliferation assay, EGFR exon 19 deletion/C797S (BaF3 d19/CS); format: cell-based; conditions: Ba/F3 EGFR; BaF3_EGFR d19/CS cells, ~72 hours, CellTiter-Glo; read-out: BaF3 d19/CS IC50

Sequence of recombinant human EGFR L858R/C797S double mutant protein (P00533 25-1210 C797S/L858R): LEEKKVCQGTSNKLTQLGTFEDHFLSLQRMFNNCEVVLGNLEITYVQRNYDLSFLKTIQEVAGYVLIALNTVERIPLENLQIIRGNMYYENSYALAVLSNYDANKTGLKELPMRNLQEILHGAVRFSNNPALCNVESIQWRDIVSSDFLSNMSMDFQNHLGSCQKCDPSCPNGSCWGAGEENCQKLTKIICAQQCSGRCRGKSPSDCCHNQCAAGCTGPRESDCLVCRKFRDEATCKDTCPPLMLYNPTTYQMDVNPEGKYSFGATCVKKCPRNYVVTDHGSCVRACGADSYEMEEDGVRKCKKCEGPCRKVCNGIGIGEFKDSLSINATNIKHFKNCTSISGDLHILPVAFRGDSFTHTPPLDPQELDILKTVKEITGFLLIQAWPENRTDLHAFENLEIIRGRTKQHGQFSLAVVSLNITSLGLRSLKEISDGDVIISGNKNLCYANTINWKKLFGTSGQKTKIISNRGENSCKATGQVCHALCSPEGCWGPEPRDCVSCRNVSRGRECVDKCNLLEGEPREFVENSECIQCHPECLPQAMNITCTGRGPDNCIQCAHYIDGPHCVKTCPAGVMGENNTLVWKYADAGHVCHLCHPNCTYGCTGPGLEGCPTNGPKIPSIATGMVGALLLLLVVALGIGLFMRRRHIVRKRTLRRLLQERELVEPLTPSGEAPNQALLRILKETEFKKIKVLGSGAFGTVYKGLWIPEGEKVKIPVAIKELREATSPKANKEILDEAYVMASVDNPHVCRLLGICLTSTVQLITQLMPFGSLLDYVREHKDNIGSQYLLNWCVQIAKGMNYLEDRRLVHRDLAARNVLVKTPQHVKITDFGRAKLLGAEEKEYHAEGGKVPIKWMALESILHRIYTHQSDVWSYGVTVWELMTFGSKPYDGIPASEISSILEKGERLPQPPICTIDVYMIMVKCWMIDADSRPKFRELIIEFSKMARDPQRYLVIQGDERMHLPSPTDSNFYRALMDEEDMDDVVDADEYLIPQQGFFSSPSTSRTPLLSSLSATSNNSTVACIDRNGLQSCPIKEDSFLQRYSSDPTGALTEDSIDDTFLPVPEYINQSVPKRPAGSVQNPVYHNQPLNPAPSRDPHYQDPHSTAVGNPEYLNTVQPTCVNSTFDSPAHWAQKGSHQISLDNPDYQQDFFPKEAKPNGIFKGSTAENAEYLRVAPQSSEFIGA
Sequence of recombinant human EGFR exon 19 deletion/C797S double mutant protein (P00533 other isoform, or with tags, fused parts or gaps C797S/del 1-668/del 746-750 limits assumed): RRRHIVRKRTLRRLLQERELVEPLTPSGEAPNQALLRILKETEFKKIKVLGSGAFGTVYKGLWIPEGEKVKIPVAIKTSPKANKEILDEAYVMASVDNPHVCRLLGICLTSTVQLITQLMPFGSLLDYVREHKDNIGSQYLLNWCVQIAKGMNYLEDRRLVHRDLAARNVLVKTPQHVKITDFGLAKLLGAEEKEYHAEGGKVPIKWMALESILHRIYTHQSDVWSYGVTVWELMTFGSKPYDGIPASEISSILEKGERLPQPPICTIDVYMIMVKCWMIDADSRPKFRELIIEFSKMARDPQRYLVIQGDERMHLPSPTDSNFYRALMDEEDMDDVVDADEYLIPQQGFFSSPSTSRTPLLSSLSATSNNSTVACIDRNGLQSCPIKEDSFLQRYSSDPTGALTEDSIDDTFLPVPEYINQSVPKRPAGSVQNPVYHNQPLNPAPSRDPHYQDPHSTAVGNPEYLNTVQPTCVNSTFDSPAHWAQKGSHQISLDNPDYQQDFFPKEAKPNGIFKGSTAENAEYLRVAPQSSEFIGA

SMILES	IC50 [1]	IC50 (BaF3_EGFR LR/CS cells)	IC50 (Ba/F3_EGFR WT cells)	IC50 [2]	IC50 (BaF3_EGFR d19/CS cells)
OCCCc1cc(-c2ccnc3[nH]c(-c4ccccc4)cc23)n(-c2ccc(F)cc2)n1 [Example 12, 3-[1-(4-fluorophenyl)-5-{2-phenyl-1H-pyrrolo[2,3-b]pyridin-4-yl}pyrazol-3-yl]propan-1-ol]	0.732 nM	25.3 nM	483 nM	1.08 nM	21.4 nM
CN1CCN(c2ccc(-c3nc4c(-c5cn(CCCO)nc5-c5ccc(F)cc5)ccnc4[nH]3)cc2)CC1 [Example 13, 3-[3-(4-Fluorophenyl)-4-{2-[4-(4-methylpiperazin-1-yl)phenyl]-3H-imidazo[4,5-b]pyridin-7-yl}-1H-pyrazol-1-yl]propan-1-ol]	0.173 nM	4.1 nM	255 nM	0.272 nM	3.71 nM
CN1CC=C(c2cc3c(-c4cn(CCCO)nc4-c4ccc(F)cc4)ccnc3[nH]2)CC1 [Example 14, 3-{3-(4-Fluorophenyl)-4-[2-(1-methyl-1,2,3,6-tetrahydropyridin-4-yl)-1H-pyrrolo[2,3-b]pyridin-4-yl]-1H-pyrazol-1-yl}propan-1-ol]	3.3 nM	120 nM	1350 nM	7.58 nM	113 nM
CN1CCN(c2ccc(-c3nc4c(-c5cn(CCCO)nc5-c5ccc(F)cc5)ncnc4[nH]3)cc2)CC1 [Example 15, 3-[3-(4-Fluorophenyl)-4-{8-[4-(4-methylpiperazin-1-yl)phenyl]-9H-purin-6-yl}-1H-pyrazol-1-yl]propan-1-ol]	0.207 nM	1.02 nM	64.7 nM	0.27 nM	0.949 nM
N#Cc1c(-c2ccc(F)cc2)c(-c2ccnc3[nH]c(-c4ccccc4)cc23)nn1CCCO [Example 16, 4-(4-Fluorophenyl)-1-(3-hydroxypropyl)-3-(2-phenyl-1H-pyrrolo[2,3-b]pyridin-4-yl)-1H-pyrazole-5-carbonitrile]	1.57 nM	4.38 nM	816 nM	1.47 nM	3.39 nM
OCCCn1cc(-c2ccnc3[nH]c(-c4nnco4)cc23)c(-c2ccc(F)cc2)n1 [Example 17, 3-{3-(4-Fluorophenyl)-4-[2-(1,3,4-oxadiazol-2-yl)-1H-pyrrolo[2,3-b]pyridin-4-yl]-1H-pyrazol-1-yl}propan-1-ol]	3.46 nM	153 nM	1740 nM	8.44 nM	157 nM
CN1CCN(c2ccc(-c3cc4c(-c5nn(CCCO)nc5-c5ccc(F)cc5)ccnc4[nH]3)cc2)CC1 [Example 18, 3-[4-(4-Fluorophenyl)-5-{2-[4-(4-methylpiperazin-1-yl)phenyl]-1H-pyrrolo[2,3-b]pyridin-4-yl}-2H-1,2,3-triazol-2-yl]propan-1-ol]	0.0926 nM	2.06 nM	71.4 nM	0.141 nM	1.83 nM
CN1CCN(c2ccc(-c3cc4c(-c5cn(CCCO)nc5-c5ccc(F)cc5)ncnc4[nH]3)cc2)CC1 [Example 19, 3-[3-(4-Fluorophenyl)-4-{6-[4-(4-methylpiperazin-1-yl)phenyl]-7H-pyrrolo[2,3-d]pyrimidin-4-yl}-1H-pyrazol-1-yl]propan-1-ol]	0.17 nM	0.402 nM	8.67 nM	0.242 nM	0.244 nM
CCC(=O)CCn1cc(-c2ncnc3oc(-c4ccccc4)nc23)c(-c2ccc(F)cc2)n1 [Example 20, 1-[3-(4-fluorophenyl)-4-(2-phenyl[1,3]oxazolo[5,4-d]pyrimidin-7-yl)-1H-pyrazol-1-yl]pentan-3-one]	4.19 nM	578 nM	5340 nM	4.92 nM	686 nM
CC(C)(O)CCn1cc(-c2ncnc3oc(-c4ccccc4)nc23)c(-c2ccc(F)cc2)n1 [Example 21, 4-[3-(4-Fluorophenyl)-4-(2-phenyl[1,3]oxazolo[5,4-d]pyrimidin-7-yl)-1H-pyrazol-1-yl]-2-methylbutan-2-ol]	5.47 nM	375 nM	18500 nM	5.2 nM	539 nM
CC(C)(O)CCn1ncc(-c2ncnc3oc(-c4ccccc4)nc23)c1-c1ccc(F)cc1 [Example 22, 4-[5-(4-fluorophenyl)-4-(2-phenyl[1,3]oxazolo[5,4-d]pyrimidin-7-yl)-1H-pyrazol-1-yl]-2-methylbutan-2-ol]	90.9 nM	3660 nM	20000 nM	197 nM	4100 nM
OCCCCn1nc(-c2ccc(F)cc2)c(-c2ccnc3[nH]c(-c4ccccc4)cc23)n1 [Example 23, 4-[4-(4-Fluorophenyl)-5-(2-phenyl-1H-pyrrolo[2,3-b]pyridin-4-yl)-2H-1,2,3-triazol-2-yl]butan-1-ol]	0.633 nM	69.9 nM	2650 nM	1.1 nM	31.9 nM
OC1(CCn2cc(-c3ncnc4oc(-c5ccccc5)cc34)c(-c3ccc(F)cc3)n2)CC1 [Example 24, 1-{2-[3-(4-fluorophenyl)-4-(6-phenylfuro[2,3-d]pyrimidin-4-yl)-1H-pyrazol-1-yl]ethyl}cyclopropan-1-ol]	0.909 nM	124 nM	2490 nM	1.13 nM	44.7 nM
N#CCn1cc(-c2ncnc3oc(-c4ccccc4)nc23)c(-c2ccc(F)cc2)n1 [Example 25, [3-(4-fluorophenyl)-4-(2-phenyl[1,3]oxazolo[5,4-d]pyrimidin-7-yl)-1H-pyrazol-1-yl]acetonitrile]	7.72 nM	726 nM	3490 nM	13 nM	810 nM
Fc1ccc(-c2nn(CCCC(F)F)cc2-c2ncnc3oc(-c4ccccc4)nc23)cc1 [Example 26, 7-[1-(4,4-difluorobutyl)-3-(4-fluorophenyl)-1H-pyrazol-4-yl]-2-phenyl[1,3]oxazolo[5,4-d]pyrimidine]	4.22 nM	562 nM	6410 nM	4.06 nM	486 nM
OCCn1nc(-c2ccc(F)cc2)c(-c2ncnc3[nH]c(-c4ccccc4)nc23)n1 [Example 27, 2-[4-(4-Fluorophenyl)-5-(8-phenyl-9H-purin-6-yl)-2H-1,2,3-triazol-2-yl]ethan-1-ol]	3.12 nM	208 nM	11700 nM	8.65 nM	464 nM
OCCCCn1nc(-c2ccc(F)cc2)c(-c2ncnc3[nH]c(-c4ccccc4)nc23)n1 [Example 28, 4-[4-(4-fluorophenyl)-5-(8-phenyl-9H-purin-6-yl)-2H-1,2,3-triazol-2-yl]butan-1-ol]	4.16 nM	493 nM	17800 nM	10.8 nM	885 nM
CN1CCN(c2ccc(-c3cc4c(-c5oc(CCCO)nc5-c5ccc(F)cc5)ccnc4[nH]3)cc2)CC1 [Example 29, 3-[4-(4-Fluorophenyl)-5-{2-[4-(4-methylpiperazin-1-yl)phenyl]-1H-pyrrolo[2,3-b]pyridin-4-yl}-1,3-oxazol-2-yl]propan-1-ol]	0.0769 nM	1.29 nM	88.4 nM	0.111 nM	1.22 nM
N#CCn1cc(-c2ncnc3oc(-c4ccccc4)cc23)c(-c2ccc(F)cc2)n1 [Example 30]	1.88 nM	260 nM	4440 nM	1.72 nM	319 nM

— US20250034159A1, “INHIBITORS OF EPIDERMAL GROWTH FACTOR RECEPTOR” (ORIC Pharmaceuticals, Inc., priority 2021, published 2025)
